Key:
[1] = system: C6 cells; assay: Intracellular localization and pharmacokinetics in C6 cells by fluorescent imaging; type: cell-based; details: FIG. 3; for Incorporation at one hour of incubation (intracellular fluorescence): 1 hour
Experimental: So as to confirm the potential use of the mentioned compounds for the production of a photosensitive composition administrable to a living creature and useful as an agent adapted to give rise, under the influence of irradiation, to cytolysis or necrosis at least partially of at least one target region of the human or animal body, a visualization was conducted of the localization in vitro of the SIMO1 molecule, as well as the determination of the pharmacokinetics compared to m-THPC, by fluorescent imaging so as to confirm that the mentioned compounds were capable of penetrating the cells. Thus, C6 cells were seeded at a rate of 10^5 cells/ml on circular glass plates after trypsinization. After 24 hours, cells were incubated with SIMO1 (10 μg/ml) at 37° C. for 3 hours and then washed with PBS (pH 7.2). Fluorescence analysis of SIMO1 (emitting at 650 nm) was carried out after excitation of 450 nm to 480 nm with a 150 watt Xenon lamp by using a black and white video camera with very sensitive detection of photons (Kappa CF 8/4; Fischer Scientific S.A., France), connected to an optical microscope (Olympus BX 40, France) provided with an oil immersion objective magnifying 100 times.

[2] = system: C6 cells; assay: Phototoxicity of SIMO1 on C6 cells (laser irradiation, MTT count); type: cell-based; details: 20 joules/cm^2 diode laser
Experimental: C6 cells were cultured in flasks of 25 cm^2 (Polylabo, Strasbourg, France) in an RPMI medium supplemented with 10% (V/V) of fetal calf serum (FCS), 100 units of penicillin mL^−1, […] of streptomycin and 2 mM of glutamine.
The cells were replicated by dispersion culturing with 0.025% of trypsin in 0.02% ethylene-diaminotetracetic acid (EDTA) for a contact time of 2 minutes and returned to adhere at a dilution of 1:3, which maintain the cells in the exponential phase of growth. The cells were verified on a regular basis by contamination of the mycoplasms.
The cells thus cultivated were subjected to a photodynamic treatment. Aliquots (11 μl) of the photosensitizing solution SIMO1 were added to C6 cells adhered in wells of plates with 96 wells after trypsonation, as described above. The cellular concentration was 5.10^4 cells/ml^−1 (100 μl per well). The final concentration of the solutions of SIMO1 was comprised within the range of 0.5 to 50 μg/ml. Immediately after addition of the photosensitizer SIMO1, the plates of cells were held in complete darkness till the time of counting, except for a laser irradiation of the cells treated with PDT. The fresh medium containing FCS but free from photosensitizer was prepared before laser irradiation. […]
The optical density of each well of the microplates was then read at 570 nm by means of a Uniskan Titertack (Flow Laboratories, Puteaux, France). […]

[3] = In vivo spectrofluorimetric measurement of incorporation and retention in muscle, skin and tumor of mice grafted with HT-29; details: 2 mg/kg
Experimental: For these tests, the following was the procedure: spectrofluorimetric measurements were carried out on mice grafted with HT-29 at different intervals of time after injection of 2 mg/kg^−1 of m-THPC or SIMO1. The tested times were 3, 6, 12, 24, 48 and 144 hours on mice.
The level of fluorescence were recorded in different tissues, namely the muscle, the skin and the tumor. The measurements were taken by using an optical fiber placed directly in contact with the tissues. At least four spectra per tissue and per mouse were recorded (at least five mice were used for each experimental condition). Muscle, skin and tumor were successively studied.
The emission spectra of fluorescence of untreated mice tissue were recorded at three separate times so as to estimate the intermouse variations. The values of fluorescent intensity mentioned in FIG. 6 correspond for each organ to the result of the difference between the value of fluorescence obtained in a treated mouse and the value of fluorescence recorded in the control group. The results of spectrofluorometric measurement in vivo were expressed in beats per second (arbitrary unit).

[4] = system: C6 cells; assay: Toxicity of SIMO1 on non-irradiated C6 cells (MTT count); type: cell-based
Experimental: C6 cells were cultured in flasks of 25 cm^2 (Polylabo, Strasbourg, France) in an RPMI medium supplemented with 10% (V/V) of fetal calf serum (FCS), 100 units of penicillin mL^-1, […] of streptomycin and 2 mM of glutamine. The cells were replicated by dispersion culturing with 0.025% of trypsin in 0.02% ethylene-diaminotetracetic acid (EDTA) for a contact time of 2 minutes and returned to adhere at a dilution of 1:3, which maintain the cells in the exponential phase of growth. The cells were verified on a regular basis by contamination of the mycoplasms. The cells thus cultivated were subjected to a photodynamic treatment. Aliquots (11 μl) of the photosensitizing solution SIMO1 were added to C6 cells adhered in wells of plates with 96 wells after trypsonation, as described above. The cellular concentration was 5.10^4 cells/ml^-1 (100 μl per well). The final concentration of the solutions of SIMO1 was comprised within the range of 0.5 to 50 μg/ml. Immediately after addition of the photosensitizer SIMO1, the plates of cells were held in complete darkness till the time of counting, except for a laser irradiation of the cells treated with PDT. The fresh medium containing FCS but free from photosensitizer was prepared before laser irradiation. A laser with a diode at 650 nm was used. The power of the end of the fiber was adjusted, by using a device for measuring power (Coherent, France), at 500 mW. The light was transmitted to the target by an optical fiber at a distance of 20 mm so as to irradiate the cells in the wells 6 mm in diameter within a single field providing an illumination of all of the region. The time of exposure was 13 seconds per well at 650 nm, supplying an energy density of 20 J/cm^2. The cells were incubated with SIMO1 for 5 or 20 hours. For phototoxicity tests, the cells were washed and the medium was replaced immediately before laser irradiation. […] The optical density of each well of the microplates was then read at 570 nm by means of a […] […]

[5] = system: cellular tumor HT29 obtained initially from human colorectal adenocarcinoma; assay: In vivo phototoxicity: growth of HT29 tumor grafts in nude mice after injection and laser irradiation; details: for Activity on tumor growth, SIMO1 versus m-THPC: 2 mg/kg intra-peritoneal, irradiation 6 hours and 12 hours after injection, FIG. 5
Experimental: To establish these conclusions, the following procedure was used: Swiss male nude/nude mice aged 7 to 9 weeks (weight range 25-35 g) were obtained from Iffa-Credo (L'arbresle, France).
The test method is that of the cellular tumor HT29 obtained initially from human colorectal adenocarcinoma.
The tumor grafts were obtained as follows: nonnecrotic solid tumor tissues (diameter 1 to 2 cm) were removed immediately after death of the donor mouse and then mechanically crushed in 1 ml of a 0.9% saline solution. This solution (0.2 ml) was injected sub-cutaneously into the rear paw of each mouse. This tumor was used one week later, when its diameter was 18-20 mm. […] The wavelength was illumination was selected between 652-653 nm.
The light source was a diode laser at 652 nm.
The luminous density was maintained below 0.3 W.cm^−2, at doses at which the thermal effects are indetectable. A single irradiation was carried out and the time of exposure was calculated as a function of the diameter of the tumor to obtain an energy density of 300 J/cm^−2 at a predetermined constant light density.
Each day, the index of tumor growth was measured by using a slide foot, the principal orthogonal diameters being added and divided by a factor of 2.
A statistical characteristic of the growth index between treated and control mice (without light or SIMO1) was carried by using the Student test.

Compound | Incorporation at one hour of incubation (intracellular fluorescence) [1] | Time of maximum intracellular concentration (fluorescence) after incubation [1] | DL50, phototoxic treatment ([2]; 5 hours of incubation) | DL50, phototoxic treatment ([2]; 20 hours of incubation) | Detection of photosensitive agent in tissues after 48 hours ([3]; 48 hours after injection) | Retention time in all the tissues compared to m-THPC ([3]; muscle, skin and tumor, FIG. 6) | DL50, toxicity (non-irradiated) [4] | SIMO1 toxicity (non-irradiated) ([4]; C6 cells, 5 hours of incubation, no irradiation) | Concentration short of which harmless in the absence of luminous irradiation ([4]; C6 cells, no irradiation) | Activity on tumor growth, SIMO1 versus m-THPC [5] | Retardation between intra-peritoneal injection and laser irradiation giving the most marked effects ([5]; 5 mg/kg intra-peritoneal, 300 J/cm^2, FIG. 4) | Slowing of growth of the tumor ([5]; HT-29 grafted nude mice, 5 mg/kg intra-peritoneal, 12 hours between injection and irradiation, 300 J/cm^2 at 652 nm, twelve days after treatment) | Growth of the tumor compared to the untreated control group ([5]; all tested conditions: irradiation 2, 6, 12, 24, 48 hours after 5 mg/kg intra-peritoneal, 300 J/cm^2) | Detection of photosensitive agent in tissues 144 hours after injection ([3]; 144 hours after injection)
2,3-dihydro-5, 15-Bis(3,5-dihydroxy-1-phenyl)-prohyrin [SIMO1] | high incorporation | 3 h | 1.75 µg/mL | 0.45 µg/mL | no photosensitive agent was detected | shorter | 29 µg/mL | no toxicity was detected | about 20 μg/ml | comparable activity | 12 h | 40% | reduction of growth of the tumor | –
Oc1cccc(-c2c3nc(c(-c4cccc(O)c4)c4ccc([nH]4)c(-c4cccc(O)c4)c4nc(c(-c5cccc(O)c5)c5ccc2[nH]5)CC4)C=C3)c1 [m-THPC, reference compound] | small incorporation | increases to 6 hours | – | – | – | – | – | – | – | comparable activity | – | – | – | still detectable
